Calls of active or inactive are those of the source. The rule behind the calls is not given here.
How the values were obtained:
[1] = molecular target: T1, Glucagon-like peptide 1 receptor (Homo sapiens, UniProt P43220); assay: Agonist activity at human GLP-1R expressed in HEK293 cells incubated for 30 mins and assessed as increase in cAMP accumulation measured by HTRF assay; type: functional, cell-based
[2] = molecular target: T1, Glucagon-like peptide 1 receptor; assay: Agonist activity at human GLP-1R expressed in HEK293 cells incubated for 30 mins and assessed as increase in cAMP accumulation measured by HTRF assay relative to control; type: functional, cell-based; parameters: concentration or dose not given beside the values; conditions: filed as agonist
[3] = molecular target: Glucagon receptor (Homo sapiens, UniProt P47871); assay: Agonist activity at human GCGR expressed in HEK293 cells incubated for 30 mins and assessed as increase in cAMP accumulation measured by HTRF assay; type: functional, cell-based
[4] = test system: Mus musculus; assay: Antidiabetic activity in DIO mouse assessed as reduction in blood glucose at 10 nmol/kg, ip pretreated with compound and followed by glucose challenge and measured by oral glucose tolerance test; type: functional, organism-based
[5] = test system: Mus musculus; assay: Antidiabetic activity in DIO mouse assessed as reduction in plasma insulin level at 10 nmol/kg, ip pretreated with compound and followed by glucose challenge and measured by oral glucose tolerance test; type: functional, organism-based
[6] = test system: Mus musculus; assay: Antidiabetic activity in male DIO mouse assessed as reduction in acute food intake at 10 nmol/kg, sc measured at 0 to 2 hrs post administration; type: functional, organism-based
[7] = test system: Mus musculus; assay: Antidiabetic activity in overnight fasted male C57BL/6J mouse assessed as reduction in acute food intake at 30 nmol/kg, sc administered at -0.5 hrs; type: functional, organism-based
[8] = test system: Rattus norvegicus; assay: Antidiabetic activity in overnight fasted male Sprague-Dawley rat assessed as reduction in food intake at 10 nmol/kg, ip; type: functional; parameters: scale not given: the % may be the effect or the level left
[9] = test system: Rattus norvegicus; assay: Antidiabetic activity in overnight fasted male Sprague-Dawley rat assessed as reduction in food intake at 300 nmol/kg, ip; type: functional; parameters: scale not given: the % may be the effect or the level left
[10] = Toxicity in overnight fasted male Sprague-Dawley rat assessed as induction of Pica behaviour by measuring kaolin intake at 10 to 300 nmol/kg, ip; conditions: in vivo, dose 10-300 nmol/kg
[11] = Cmax in male Sprague-Dawley rat at 25 nmol/kg, iv administered as single dose and measured after 24 hrs by LC-MS/MS analysis; type: ADME, organism-based; parameters: dose 25 nmol/kg, time 24 hrs, route iv; conditions: in vivo
[12] = Half-life in male Sprague-Dawley rat at 25 nmol/kg, sc administered as single dose and measured after 24 hrs by LC-MS/MS analysis; type: ADME, organism-based; conditions: in vivo
[13] = MRT in male Sprague-Dawley rat at 25 nmol/kg, sc administered as single dose and measured after 24 hrs by LC-MS/MS analysis; type: ADME, organism-based; conditions: in vivo
[14] = AUC (inifinity) in male Sprague-Dawley rat at 25 nmol/kg, sc administered as single dose and measured after 24 hrs by LC-MS/MS analysis; type: ADME, organism-based; parameters: dose 25 nmol/kg, time 24 hrs, route sc; conditions: in vivo
[15] = test system: Mus musculus; assay: Antidiabetic activity in male DIO mouse assessed as decrease in fasted blood glucose at 100 nmol/kg, sc administered twice daily for 7 days; type: functional, organism-based; conditions: time 7.0 day
[16] = Toxicity in male DIO mouse assessed as change in liver AST level at 100 nmol/kg, sc administered twice daily for 7 days; type: organism-based; conditions: in vivo, 168 h, time 7 day
[17] = Toxicity in male DIO mouse assessed as change in Cre at 100 nmol/kg, sc administered twice daily for 7 days; type: organism-based; conditions: in vivo, 168 h, time 7 day
[18] = Toxicity in male DIO mouse assessed as change in serum amylase at 100 nmol/kg, sc administered twice daily for 7 days; type: organism-based; conditions: in vivo, 168 h, time 7 day
[19] = test system: Mus musculus; assay: Antidiabetic activity in male db/db mouse assessed as decrease in cumulative food intake at 100 nmol/kg, sc administered twice daily for 7 days; type: functional, organism-based; conditions: time 7.0 day
[20] = test system: Mus musculus; assay: Antidiabetic activity in male db/db mouse assessed as decrease in fasted blood glucose at 100 nmol/kg, sc administered twice daily for 7 days; type: functional, organism-based; conditions: time 7.0 day
[21] = Toxicity in male db/db mouse assessed as change in liver AST level at 100 nmol/kg, sc administered twice daily for 7 days; type: organism-based; conditions: in vivo, 168 h, time 7 day
[22] = Toxicity in male db/db mouse assessed as change in BUN at 100 nmol/kg, sc administered twice daily for 7 days; type: organism-based; conditions: in vivo, 168 h, time 7 day
[23] = Toxicity in male db/db mouse assessed as change in serum amylase at 100 nmol/kg, sc administered twice daily for 7 days; type: organism-based; conditions: in vivo, 168 h, time 7 day
[24] = test system: Mus musculus; assay: Antidiabetic activity in male db/db mouse assessed as significant reduction in body weight gain at 30 nmol/kg, sc administered twice daily for 35 days; type: functional, organism-based; conditions: time 35.0 day
[25] = test system: Mus musculus; assay: Antidiabetic activity in male db/db mouse assessed as reduction in blood glucose level at 30 nmol/kg, sc administered twice daily for 35 days; type: functional, organism-based; conditions: time 35.0 day
[26] = test system: Mus musculus; assay: Antidiabetic activity in male db/db mouse assessed as reduction in food consumption at 30 nmol/kg, sc administered twice daily for 35 days; type: functional, organism-based; conditions: time 35.0 day
[27] = test system: Mus musculus; assay: Antidiabetic activity in male db/db mouse assessed as decrease in HbA1c level at 30 nmol/kg, sc administered twice daily for 35 days; type: functional, organism-based; conditions: time 35.0 day
[28] = test system: Mus musculus; assay: Antidiabetic activity in male db/db mouse assessed as improvement in glucose tolerance at 30 nmol/kg, sc administered twice daily for 35 days; type: functional, organism-based; conditions: time 35.0 day
[29] = test system: Mus musculus; assay: Antidiabetic activity in male db/db mouse assessed as increase in islet number at 30 nmol/kg, sc administered twice daily for 35 days; type: functional, organism-based; conditions: time 35.0 day
[30] = test system: Mus musculus; assay: Antidiabetic activity in male db/db mouse assessed as increase in insulin IOD value at 30 nmol/kg, sc administered twice daily for 35 days; type: functional, organism-based; conditions: time 35.0 day
[31] = Toxicity in male db/db mouse assessed as change in liver AST level at 30 nmol/kg, sc administered twice daily for 35 days; type: organism-based; conditions: in vivo, 840 h, time 35 day
[32] = Toxicity in male db/db mouse assessed as change in BUN level at 30 nmol/kg, sc administered twice daily for 35 days; type: organism-based; conditions: in vivo, 840 h, time 35 day
[33] = Toxicity in male db/db mouse assessed as change in serum amylase level at 30 nmol/kg, sc administered twice daily for 35 days; type: organism-based; conditions: in vivo, 840 h, time 35 day
[34] = Toxicity in male db/db mouse assessed as change in serum lipase level at 30 nmol/kg, sc administered twice daily for 35 days; type: organism-based; conditions: in vivo, 840 h, time 35 day
[35] = test system: Mus musculus; assay: Antidiabetic activity in male […] assessed as reduction in body weight at 30 nmol/kg, sc administered twice daily for 3 weeks; type: functional; parameters: scale not given: the % may be the effect or the level left
[36] = test system: Mus musculus; assay: Antidiabetic activity in male […] assessed as reduction in fat mas at 30 nmol/kg, sc administered twice daily for 3 weeks; type: functional, organism-based
[37] = test system: Mus musculus; assay: Antidiabetic activity in male […] assessed as reduction in fasted glucose level at 30 nmol/kg, sc administered twice daily for 3 weeks; type: functional, organism-based
[38] = test system: Mus musculus; assay: Antidiabetic activity in male […] assessed as increase in plasma insulin level at 30 nmol/kg, sc administered twice daily for 3 weeks; type: functional, organism-based
[39] = test system: Mus musculus; assay: Antidiabetic activity in male […] assessed as increase in plasma FGF21 level at 30 nmol/kg, sc administered twice daily for 3 weeks; type: functional, organism-based
[40] = test system: Mus musculus; assay: Antidiabetic activity in male […] assessed as decrease in serum total cholesterol level at 30 nmol/kg, sc administered twice daily for 3 weeks; type: functional, organism-based
[41] = test system: Mus musculus; assay: Antidiabetic activity in male […] assessed as increase in serum HDL/LDL ratio at 30 nmol/kg, sc administered twice daily for 3 weeks; type: functional, organism-based
[42] = Toxicity in male […] assessed as normalization of hepatic lipid content at 30 nmol/kg, sc administered twice daily for 3 weeks; type: organism-based; conditions: in vivo, 504 h

T1 sequence (P43220 whole entry): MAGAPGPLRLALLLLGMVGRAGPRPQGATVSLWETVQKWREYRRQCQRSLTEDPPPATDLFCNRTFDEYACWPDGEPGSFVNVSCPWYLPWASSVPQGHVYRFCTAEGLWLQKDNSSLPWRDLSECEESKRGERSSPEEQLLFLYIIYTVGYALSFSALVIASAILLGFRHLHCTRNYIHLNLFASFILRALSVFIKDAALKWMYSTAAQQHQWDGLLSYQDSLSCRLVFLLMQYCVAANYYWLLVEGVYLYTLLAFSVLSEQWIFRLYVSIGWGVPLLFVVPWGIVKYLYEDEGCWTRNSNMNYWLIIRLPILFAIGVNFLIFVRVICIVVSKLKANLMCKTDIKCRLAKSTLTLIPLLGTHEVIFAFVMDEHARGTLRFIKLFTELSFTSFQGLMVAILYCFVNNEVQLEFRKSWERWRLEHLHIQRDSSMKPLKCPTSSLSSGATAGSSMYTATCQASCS
Chain of Glucagon receptor (P47871 whole entry): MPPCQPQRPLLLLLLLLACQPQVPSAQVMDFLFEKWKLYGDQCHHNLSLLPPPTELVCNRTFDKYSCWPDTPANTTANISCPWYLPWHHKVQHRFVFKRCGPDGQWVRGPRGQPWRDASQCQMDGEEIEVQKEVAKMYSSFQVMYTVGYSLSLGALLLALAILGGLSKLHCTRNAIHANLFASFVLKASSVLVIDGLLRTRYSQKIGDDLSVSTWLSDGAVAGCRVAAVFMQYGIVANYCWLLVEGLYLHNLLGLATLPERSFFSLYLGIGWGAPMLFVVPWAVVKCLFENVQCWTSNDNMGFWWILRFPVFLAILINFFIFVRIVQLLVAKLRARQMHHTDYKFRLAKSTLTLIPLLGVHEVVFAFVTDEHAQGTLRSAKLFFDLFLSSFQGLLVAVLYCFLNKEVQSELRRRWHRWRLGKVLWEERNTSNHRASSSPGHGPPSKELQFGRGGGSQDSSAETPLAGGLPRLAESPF

CCCCCCCCCCCCCCCC(=O)N[C@@H](CCC(=O)NCCCC[C@H](NC(=O)[C@H](Cc1ccc(O)cc1)NC(=O)[C@H](CCCCN)NC(=O)[C@H](CO)NC(=O)[C@@H](NC(=O)[C@H](CC(=O)O)NC(=O)[C@H](CC(N)=O)NC(=O)[C@@H](NC(=O)[C@H](Cc1ccc(O)cc1)NC(=O)[C@@H](NC(=O)CNC(=O)[C@H](CCC(N)=O)NC(=O)[C@@H](CO)NC(=O)[C@@H](N)Cc1c[nH]cn1)[C@@H](C)O)[C@@H](C)O)C(C)C)C(=O)N[C@@H](CC(=O)O)C(=O)N[C@@H](CO)C(=O)N[C@@H](CCCNC(=N)N)C(=O)N[C@@H](CCCNC(=N)N)C(=O)N[C@@H](C)C(=O)N[C@@H](CCC(N)=O)C(=O)N[C@@H](CC(=O)O)C(=O)N[C@@H](Cc1ccccc1)C(=O)N[C@H](C(=O)N[C@@H](CCC(=O)O)C(=O)N[C@@H](Cc1c[nH]c2ccccc12)C(=O)N[C@@H](CC(C)C)C(=O)N[C@@H](CCCCN)C(=O)N[C@@H](CC(N)=O)C(=O)NCC(=O)NCC(=O)N1CCC[C@H]1C(=O)N[C@@H](CO)C(=O)N[C@@H](CO)C(=O)NCC(=O)N[C@@H](C)C(=O)N1CCC[C@H]1C(=O)N1CCC[C@H]1C(=O)N1CCC[C@H]1C(=O)N[C@@H](CO)C(N)=O)[C@@H](C)CC)C(=O)O
EC50 [1]: 0.031 nM | Activity [2]: 132% | EC50 [3]: 0.098 nM | Activity [4]: Active | Activity [5]: Active | Activity [6]: Active | Activity [7]: Active | Activity [8]: 25% | Activity [9]: 33% | Activity [10]: Non-Toxic | Cmax [11]: 1510 ng/mL | half-life [12]: 4 h | MRT [13]: 7.7 h | AUC at 24 h [14]: 4610 ng·h/mL | Activity [15]: Active | Activity [16]: Non-Toxic | Activity [17]: Non-Toxic | Activity [18]: Non-Toxic | Activity [19]: Active | Activity [20]: Active | Activity [21]: Non-Toxic | Activity [22]: Non-Toxic | Activity [23]: Non-Toxic | Activity [24]: Active | Activity [25]: Active | Activity [26]: Active | Activity [27]: Active | Activity [28]: Active | Activity [29]: Active | Activity [30]: Active | Activity [31]: Non-Toxic | Activity [32]: Non-Toxic | Activity [33]: Non-Toxic | Activity [34]: Non-Toxic | Activity [35]: 28.7% | Activity [36]: Active | Activity [37]: Active | Activity [38]: Active | Activity [39]: Active | Activity [40]: Active | Activity [41]: Active | Activity [42]: Non-Toxic
